Measured values reported in paper PMC4394430, “Licochalcone A, a Polyphenol Present in Licorice, Suppresses UV-Induced COX-2 Expression by Targeting PI3K, MEK1, and B-Raf” (International Journal of Molecular Sciences, 2015).

Assays:
[1] = molecular target: T1, B-Raf (Homo sapiens, UniProt P15056); conditions: 10 and 100 uM ATP; 4 C; competitive with LicoA
T1 construct: gene BRAF

[2] = molecular target: T1, B-Raf; assay: […] kinase assay, inactive MEK1 and MBP peptide; format: biochemical; conditions: 5 and 10 uM LicoA; pH 7.5; 30 C; coupled readout; ATP-competitive
[3] = molecular target: T1, B-Raf; assay: LicoA-Sepharose 4B pull-down, immunoblot; format: binding; conditions: pH 7.5; 4 C; immobilised LicoA; blocked by ATP (ATP-competitive)
[4] = molecular target: T2, MEK1 (Homo sapiens, UniProt Q02750); assay: LicoA-Sepharose 4B pull-down, immunoblot; format: binding; conditions: pH 7.5; 4 C; immobilised LicoA; not blocked by ATP (non-competitive)
T2 construct: gene MAP2K1
T2 sequence (Q02750 whole entry): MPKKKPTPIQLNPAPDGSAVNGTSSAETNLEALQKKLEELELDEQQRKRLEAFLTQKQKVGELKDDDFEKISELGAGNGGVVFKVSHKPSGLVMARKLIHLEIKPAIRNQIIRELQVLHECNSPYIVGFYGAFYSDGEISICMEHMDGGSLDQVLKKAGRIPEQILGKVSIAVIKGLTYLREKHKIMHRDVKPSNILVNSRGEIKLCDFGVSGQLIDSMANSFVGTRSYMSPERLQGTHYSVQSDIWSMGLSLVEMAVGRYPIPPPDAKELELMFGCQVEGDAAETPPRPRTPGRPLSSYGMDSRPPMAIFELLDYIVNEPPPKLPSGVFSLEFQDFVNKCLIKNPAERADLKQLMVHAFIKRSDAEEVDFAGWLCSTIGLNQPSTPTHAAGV

T1 sequence (P15056 2-766): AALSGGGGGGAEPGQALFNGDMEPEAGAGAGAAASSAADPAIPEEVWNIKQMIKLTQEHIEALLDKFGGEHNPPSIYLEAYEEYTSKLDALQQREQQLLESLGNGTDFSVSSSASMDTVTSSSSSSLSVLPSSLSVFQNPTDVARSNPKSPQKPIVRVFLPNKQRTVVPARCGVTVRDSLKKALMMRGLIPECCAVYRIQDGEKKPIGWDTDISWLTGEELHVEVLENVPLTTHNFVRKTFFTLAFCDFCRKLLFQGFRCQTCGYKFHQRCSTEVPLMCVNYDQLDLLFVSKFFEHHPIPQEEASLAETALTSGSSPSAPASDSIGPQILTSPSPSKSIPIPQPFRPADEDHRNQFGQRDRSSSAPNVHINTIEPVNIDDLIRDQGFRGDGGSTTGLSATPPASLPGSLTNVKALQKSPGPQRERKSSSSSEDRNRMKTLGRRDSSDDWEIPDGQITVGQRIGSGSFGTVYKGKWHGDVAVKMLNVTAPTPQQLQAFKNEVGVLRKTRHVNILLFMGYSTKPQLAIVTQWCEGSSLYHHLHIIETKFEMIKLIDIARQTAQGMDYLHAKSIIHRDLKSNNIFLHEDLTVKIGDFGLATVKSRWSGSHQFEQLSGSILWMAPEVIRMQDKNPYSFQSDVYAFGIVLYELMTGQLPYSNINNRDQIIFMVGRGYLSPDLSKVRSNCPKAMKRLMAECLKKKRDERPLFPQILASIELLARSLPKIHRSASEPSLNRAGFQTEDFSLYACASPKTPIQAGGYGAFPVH

SMILES | ATP competition with LicoA-Sepharose 4B pull-down [1] | % inhibition [2] | LicoA-Sepharose 4B pull-down, immunoblot [3] | LicoA-Sepharose 4B pull-down, immunoblot [4]
Nc1ncnc2c1ncn2[C@@H]1O[C@H](COP(=O)(O)OP(=O)(O)OP(=O)(O)O)[C@@H](O)[C@H]1O [ATP] | ATP treatment blocked the binding ability of LicoA with PI3K (Figure 4B) and B-Raf (Figure 4F) |  |  | 
C=CC(C)(C)c1cc(/C=C/C(=O)c2ccc(O)cc2)c(OC)cc1O [LicoA, Licochalcone A] |  | strongly blocked B-Raf (Figure 3C) activity in a dose-dependent manner | LicoA binds with PI3K and B-Raf in competition with ATP | LicoA binds with MEK1 in an ATP non-competitive manner
